Test system: Tie2 in HMVEC-DBls
Assay: in vitro Tie2 phosphorylation (immunoprecipitation/immunoblot), HMVEC-DBl
Type: cell-based, human
Details: VT 10 ng/mL vs Ang1 200 ng/mL, presence or absence of serum/supplements, Fig7F
From the text: Figure 7 In vitro Vasculotide vs. Ang1 stimulations: effects on Tie2 receptor phosphorylation in primary endothelial cells—HUVECs (A-E) and HMVEC-DBls (F) • A–F Primary human umbilical vein endothelial cells (HUVECs) or primary human dermal microvascular endothelial cells (HMVEC-DBls) were stimulated at 80% confluency with Vasculotide (treatment), Ang1 (positive control; ligand of Tie2), PBS (vehicle control), or VEGF (negative control; non-ligand of Tie2). Tie2 was immunoprecipitated from cell lysates and immunoblotted for total Tie2 or phosphotyrosine. […] Source data are available online for this figure. […]
Nodule areas were then […]
unit converted (to μm2) and normalized to total lung section area (including air spaces) using ROI measurements from ImageJ software (NIH).
7. Histological assessment of primary tumor viability and hypoxia
5-μm thick sections of PFA-fixed paraffin-embedded mammary fat pad tumors were subjected to: (i) standard hematoxylin and eosin (H&E) staining to visualize viable vs. necrotic regions; or (ii) standard IHC staining with a goat anti-human carbonic anhydrase IX (CAIX or CA9) antibody (R&D Systems AF2188, 1:80 dilution) plus hematoxylin counterstain to visualize hypoxic regions. […]
IHC staining for CAIX further marks a hypoxic band at the edge of the viability rim bordering the necrotic core – the thickness of this hypoxic edge was averaged over 12 measurements spaced 30o apart (see Fig. 5E).
8. Western immunoblotting for total or phosphorylated Tie2
Cultured ECs and TCs were lysed in RIPA lysis buffer as previously described (Bogdanovic et al, 2006).
Lung/ liver/ kidney tissues, which had been snap-frozen in liquid nitrogen once harvested from mice, were homogenized in RIPA lysis buffer (50 mM Tris-HCl pH 7.5, 150 mM NaCl, 1% Igepal, 0.5% sodium deoxycholate, 0.1% SDS, 1 mM Na3VO4 and protease inhibitors) at 4 °C. […]
Semi-quantitative densitometry analysis of immunoblots was performed using the ChemiGenius2 bioimaging system and GeneSnap/GeneTools software (Syngene). […]

## CHHHRHSF [Vasculotide, 4-armed maleimide-functionalized polyethylene glycol (PEG) backbone to link together four cysteine-capped T7 peptides, that is, CHHHRHSF]
  Tie2 phosphorylation: did not activate Tie2 receptors in HMVEC-DBls
Listed as VT
  Tie2 phosphorylation: did not have similar activity as equimolar Ang1

B1: recombinant human Ang1 (rhAng1) (ligand, UniProt Q15389 16-498, looked up)
chain: HIGCSNQRRSPENSGRRYNRIQHGQCAYTFILPEHDGNCRESTTDQYNTNALQRDAPHVEPDFSSQKLQHLEHVMENYTQWLQKLENYIVENMKSEMAQIQQNAVQNHTATMLEIGTSLLSQTAEQTRKLTDVETQVLNQTSRLEIQLLENSLSTYKLEKQLLQQTNEILKIHEKNSLLEHKILEMEGKHKEELDTLKEEKENLQGLVTRQTYIIQELEKQLNRATTNNSVLQKQQLELMDTVHNLVNLCTKEGVLLKGGKREEEKPFRDCADVYQAGFNKSGIYTIYINNMPEPKKVFCNMDVNGGGWTVIQHREDGSLDFQRGWKEYKMGFGNPSGEYWLGNEFIFAITSQRQYMLRIELMDWEGNRAYSQYDRFHIGNEKQNYRLYLKGHTGTAGKQSSLILHGADFSTKDADNDNCMCKCALMLTGGWWFDACGPSNLNGMFYTAGQNHGKLNGIKWHYFKGPSYSLRSTTMMIRPLDF
notes: angiopoietin-1, human, recombinant; also called angiopoietin-1; source: bought: R&D Systems (named for the Boyden chamber experiments)
  Tie2 phosphorylation: strongly and consistently activated Tie2 phosphorylation
